Assay results reported in ChEMBL document CHEMBL5728507, “Tricyclic heterocyclic derivatives and uses thereof” (2021).

Biological target: Macrophage colony-stimulating factor 1 receptor (Homo sapiens, UniProt P07333)
Assay: Biochemical Assay: IC50 values were determined using the Z′-LYTE® activity assay, with ATP concentration used at Km app for the specific assay (500 μM ATP for CSF-1R (FMS) and 75 μM ATP for KDR (VEGFR2)).The Z′-LYTE® biochemical assay employs a fluorescence-based, coupled-enzyme format and is based on the differential sensitivity of phosphorylated and non-phosphorylated peptides to proteolytic …

Sequence of Macrophage colony-stimulating factor 1 receptor (P07333 whole entry): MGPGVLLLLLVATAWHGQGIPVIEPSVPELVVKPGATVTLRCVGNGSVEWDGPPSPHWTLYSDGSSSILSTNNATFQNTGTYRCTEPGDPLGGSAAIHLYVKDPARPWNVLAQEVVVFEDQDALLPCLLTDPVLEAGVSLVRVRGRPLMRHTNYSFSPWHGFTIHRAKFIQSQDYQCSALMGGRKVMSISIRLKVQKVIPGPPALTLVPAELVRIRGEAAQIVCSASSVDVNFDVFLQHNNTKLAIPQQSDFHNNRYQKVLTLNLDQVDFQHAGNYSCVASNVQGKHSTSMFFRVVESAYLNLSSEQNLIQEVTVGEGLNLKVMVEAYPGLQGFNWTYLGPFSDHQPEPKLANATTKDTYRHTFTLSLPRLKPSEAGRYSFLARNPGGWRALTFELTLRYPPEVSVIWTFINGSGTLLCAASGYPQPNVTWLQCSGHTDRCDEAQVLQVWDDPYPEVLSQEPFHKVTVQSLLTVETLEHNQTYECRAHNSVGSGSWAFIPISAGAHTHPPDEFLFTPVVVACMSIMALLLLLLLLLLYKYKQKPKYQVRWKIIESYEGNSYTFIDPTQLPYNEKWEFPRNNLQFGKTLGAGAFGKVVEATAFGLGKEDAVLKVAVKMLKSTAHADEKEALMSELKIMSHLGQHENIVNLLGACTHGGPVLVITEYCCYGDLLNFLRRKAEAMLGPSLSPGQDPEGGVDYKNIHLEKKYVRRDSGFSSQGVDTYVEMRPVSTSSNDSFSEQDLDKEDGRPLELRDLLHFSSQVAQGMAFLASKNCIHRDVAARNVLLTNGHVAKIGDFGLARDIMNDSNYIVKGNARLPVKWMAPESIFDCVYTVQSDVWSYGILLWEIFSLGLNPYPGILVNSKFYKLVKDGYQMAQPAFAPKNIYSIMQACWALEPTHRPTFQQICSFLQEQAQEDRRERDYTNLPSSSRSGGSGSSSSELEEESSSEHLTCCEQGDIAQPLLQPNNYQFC

IC50	Compound
< 100 nM	Cc1cc(OCCCN2C[C@@H](C)N[C@@H](C)C2)c2oc3cc(Oc4ccc(CCC(=O)NC5CCCC5)nc4)ccc3c(=O)c2c1
< 100 nM	Cc1cc(OCCCN(C)C)c2oc3cc(Oc4cccc(NC(=O)Nc5ccccc5)c4)ccc3c(=O)c2c1
< 100 nM	Cc1cc(OCCN(C)C)c2oc3cc(Oc4cccc(NC(=O)Nc5ccccc5)c4)ccc3c(=O)c2c1
< 100 nM	Cc1cc(OCCCN(C)C)c2oc3cc(Oc4cccc(C(=O)Nc5ccccc5)c4)ccc3c(=O)c2c1
< 100 nM	Cc1cc(OCCN(C)C)c2oc3cc(Oc4ccc(CCC(=O)N5CCCC5)nc4)ccc3c(=O)c2c1
< 100 nM	Cc1cc(OCCN(C)C)c2oc3cc(Oc4cccc(C(=O)Nc5ccccc5)c4)ccc3c(=O)c2c1
